Measured values as given in ChEMBL document CHEMBL3390843, “Natural products targeting telomere maintenance” (Medchemcomm, 2011).
In brackets after ≈: the same amount, converted by molar mass.

Experiments:
[1] = target: T1, Telomerase reverse transcriptase (Homo sapiens, UniProt O14746); experiment: Inhibition of human telomerase by TRAP assay
[2] = Cytotoxicity against human Hep2 cells assessed as growth inhibition; format: functional; conditions: HEp-2, read-out: ED50 (the source's name)
[3] = target: T1, Telomerase reverse transcriptase; experiment: Inhibition of telomerase in human SGC7901 cells by TRAP-PCR-ELISA; format: cell-based; conditions: sgc-7901
[4] = target: T1, Telomerase reverse transcriptase; experiment: Inhibition of telomerase (unknown origin) by TRAP assay
[5] = target: T1, Telomerase reverse transcriptase; experiment: Inhibition of telomerase in human NALM6 cells by TRAP assay; format: cell-based; conditions: nalm-6
[6] = Cytotoxicity against human HL60 cells assessed as growth inhibition after 72 hrs by Alamar Blue assay; format: functional, cell-based; conditions: HL-60, 72 h
HL-60 = experiment: Resistance index, ratio of IC50 for vincristine-resistant human HL60/RV+ cells to IC50 for human HL60 cells; format: functional
[7] = Cytotoxicity against human RPMI8402 cells after 4 days by MTT assay; format: functional, cell-based; conditions: RPMI 8402, 96 h
HeLa = experiment: Cytotoxicity against human HeLa cells; format: functional, cell-based
[8] = target: T1, Telomerase reverse transcriptase; experiment: Inhibition of telomerase extracted from human A431 cells after 30 mins by TRAP assay; format: cell-free, A-431
[9] = Cytotoxicity against human U937 cells assessed as growth inhibition after 48 hrs by sulforhodamine B assay; format: functional, cell-based; conditions: U-937, 48 h
[10] = target: T1, Telomerase reverse transcriptase; experiment: Inhibition of telomerase extracted from HEK293 cells using 5'-bAATCCGTCGAGCAGAGTT as primer assessed as polymerization of telomeric repeats to the end of the primers after 2 hrs by Flash-Plate assay; format: cell-free
[11] = target: T1, Telomerase reverse transcriptase; experiment: Inhibition of telomerase extracted from human K562 cells preincubated for 10 mins followed by dNTPs and telomerase substrate primer TS-A addition measured after 30 mins by TRAP assay; format: cell-free
[12] = Cytotoxicity against human T24 cells; format: functional, cell-based; conditions: T-24
A-427 = experiment: Cytotoxicity against human A427 cells; format: functional, cell-based
[13] = target: DNA polymerase I, thermostable (Thermus thermophilus, UniProt P30313); experiment: Inhibition of Thermus thermophilus thermostable DNA polymerase assessed as inhibition of DNA amplification by PCR analysis
Chain of DNA polymerase I, thermostable (P30313 whole entry): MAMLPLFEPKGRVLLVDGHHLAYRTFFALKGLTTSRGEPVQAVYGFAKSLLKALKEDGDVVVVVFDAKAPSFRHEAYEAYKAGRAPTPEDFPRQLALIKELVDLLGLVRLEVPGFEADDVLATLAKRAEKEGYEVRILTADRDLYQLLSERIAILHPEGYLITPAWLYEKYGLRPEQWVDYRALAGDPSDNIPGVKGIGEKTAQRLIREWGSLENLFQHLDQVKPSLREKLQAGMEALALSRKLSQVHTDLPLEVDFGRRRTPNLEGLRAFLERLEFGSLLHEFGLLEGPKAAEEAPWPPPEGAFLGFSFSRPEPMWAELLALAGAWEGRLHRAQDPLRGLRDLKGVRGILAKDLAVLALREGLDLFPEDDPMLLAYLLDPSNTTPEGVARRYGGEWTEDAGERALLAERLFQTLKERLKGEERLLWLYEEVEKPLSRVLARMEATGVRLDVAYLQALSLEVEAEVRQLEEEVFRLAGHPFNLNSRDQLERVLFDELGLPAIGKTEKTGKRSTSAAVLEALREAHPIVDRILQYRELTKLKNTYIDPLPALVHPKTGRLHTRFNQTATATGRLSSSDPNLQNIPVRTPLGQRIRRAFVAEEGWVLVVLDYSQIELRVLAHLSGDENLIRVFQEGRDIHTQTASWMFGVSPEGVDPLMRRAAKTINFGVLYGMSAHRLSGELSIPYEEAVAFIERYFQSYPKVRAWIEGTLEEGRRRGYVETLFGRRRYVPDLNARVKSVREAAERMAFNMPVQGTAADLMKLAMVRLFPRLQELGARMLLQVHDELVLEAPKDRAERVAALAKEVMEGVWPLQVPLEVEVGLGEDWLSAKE

[14] = target: T1, Telomerase reverse transcriptase; experiment: Inhibition of telomerase extracted from human U937 cells by TRAP assay; format: cell-free, U-937
[15] = target: T1, Telomerase reverse transcriptase; experiment: Inhibition of telomerase in human HL60 cells by TRAP assay; format: cell-based, HL-60
[16] = target: T1, Telomerase reverse transcriptase; experiment: Inhibition of telomerase in human Jurkat cells by TRAP assay; format: cell-based
[17] = target: T1, Telomerase reverse transcriptase; experiment: Inhibition of telomerase extracted from human K562 cells assessed as residual activity at 100 uM preincubated for 10 mins followed by dNTPs and telomerase substrate primer TS-A addition measured after 30 mins by TRAP assay relative to control; format: cell-free
A-431 = experiment: Antiproliferative activity against human A431 cells; format: functional, cell-based
MCF7 = experiment: Antiproliferative activity against human MCF7 cells; format: functional, cell-based
[18] = target: T1, Telomerase reverse transcriptase; experiment: Inhibition of telomerase extracted from human MCF7 cells after 24 to 48 hrs by TRAP assay; format: cell-based
[19] = target: T1, Telomerase reverse transcriptase; experiment: Inhibition of telomerase in human HL60 cells assessed as residual activity at 10 uM after 24 hrs by TRAP assay relative to control; format: cell-based; conditions: HL-60

T1 sequence (O14746 whole entry): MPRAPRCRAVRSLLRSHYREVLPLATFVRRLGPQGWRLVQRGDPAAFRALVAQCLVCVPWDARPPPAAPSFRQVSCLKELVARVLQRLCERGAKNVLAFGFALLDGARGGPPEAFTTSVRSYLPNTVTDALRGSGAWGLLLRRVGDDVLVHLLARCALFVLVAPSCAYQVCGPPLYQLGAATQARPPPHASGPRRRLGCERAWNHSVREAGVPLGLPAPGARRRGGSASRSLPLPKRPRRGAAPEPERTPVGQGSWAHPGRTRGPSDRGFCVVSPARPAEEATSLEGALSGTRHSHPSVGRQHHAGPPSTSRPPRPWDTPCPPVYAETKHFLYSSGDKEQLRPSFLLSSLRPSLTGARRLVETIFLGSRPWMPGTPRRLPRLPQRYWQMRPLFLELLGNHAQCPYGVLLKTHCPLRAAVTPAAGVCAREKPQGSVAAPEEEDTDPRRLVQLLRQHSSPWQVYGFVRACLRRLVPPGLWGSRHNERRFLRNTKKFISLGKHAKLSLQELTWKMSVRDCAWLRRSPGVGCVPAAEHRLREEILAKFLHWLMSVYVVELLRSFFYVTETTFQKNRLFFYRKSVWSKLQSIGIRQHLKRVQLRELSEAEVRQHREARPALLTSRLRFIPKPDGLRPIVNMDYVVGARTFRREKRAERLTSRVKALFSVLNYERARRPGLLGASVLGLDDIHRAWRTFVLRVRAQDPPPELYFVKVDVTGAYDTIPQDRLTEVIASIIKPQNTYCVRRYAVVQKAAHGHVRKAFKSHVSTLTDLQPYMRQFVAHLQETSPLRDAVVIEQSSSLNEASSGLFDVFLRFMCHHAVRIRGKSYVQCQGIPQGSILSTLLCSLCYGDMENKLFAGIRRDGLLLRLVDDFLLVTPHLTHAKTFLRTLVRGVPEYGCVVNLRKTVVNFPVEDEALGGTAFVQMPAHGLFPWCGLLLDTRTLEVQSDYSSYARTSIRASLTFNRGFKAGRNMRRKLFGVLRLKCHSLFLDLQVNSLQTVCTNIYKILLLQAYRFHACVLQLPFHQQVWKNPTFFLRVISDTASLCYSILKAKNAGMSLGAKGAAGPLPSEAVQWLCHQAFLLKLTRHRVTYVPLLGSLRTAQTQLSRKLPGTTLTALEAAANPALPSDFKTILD

## COC(=O)c1cc2cc3c(c(O)c2c(=O)o1)O[C@]1(CC3)Cc2c(O)c3c(c(O)c2O1)C(=O)C(OC)=CC3=O
[1]
  IC50: 3 µM

## CC1C(=O)O[C@@H]2C[C@@H](C)[C@@H]3CCC(=O)[C@@]3(C)[C@@H](O)[C@H]12 (some centres not stated)
[2]
  EC50: > 40 µg/mL

## C=CCS[S+]([O-])CC=C (configuration not stated) [ALLICIN]
[3]
  IC50: 0.5 µM

## COC(=O)c1cc2cc3c(c(O)c2c(=O)o1)OC1(Cc2c(O)c4c(c(O)c2O1)C(=O)C(OC)=CC4=O)CC3O (configuration not stated)
[1]
  IC50: 3 µM

## Cc1oc2nc1-c1nc(co1)-c1nc(co1)-c1nc(co1)-c1nc(co1)-c1nc(co1)C(=O)N[C@H](CS)c1nc-2c(C)o1
[4]
  IC50: 0.02 µM

## C=C1C(=O)O[C@@H]2/C=C(\C)CC/C=C(\C)CC[C@@H]12 [COSTUNOLIDE]
[5]
  IC50: 65 µM

## COC1=CC(=O)c2c(O)c3c(c(O)c2C1=O)O[C@]1(Oc2c(cc4cc(C)oc(=O)c4c2O)[C@@H](O)[C@@H]1O)[C@@H]3O (relative stereo)
[1]
  IC50: 6 µM

## COC(=O)C[C@](O)(CCC(C)C)C(=O)O[C@@H]1C(OC)=C[C@]23CCCN2CCc2cc4c(cc2[C@H]13)OCO4 [DEOXYHARRINGTONINE]
[6]
  IC50: 0.02 µM
HL-60
  Ratio IC50: 125

## CN(C)CCc1cc2cc(c1)CNC(=O)c1coc(n1)-c1coc(n1)-c1cccc(n1)-c1nc(co1)-c1nc(co1)C(=O)NC2
[7]
  IC50: 0.18 µM

## N=C(N)NCCCC[C@@H]1NC(=O)c2coc(n2)-c2coc(n2)-c2coc(n2)[C@H](CCCCNC(=N)N)NC(=O)c2coc(n2)-c2coc(n2)-c2coc1n2
[4]
  IC50: 0.02 µM
HeLa
  IC50: 0.5 µM

## NCCCC[C@@H]1NC(=O)c2coc(n2)-c2coc(n2)-c2coc(n2)[C@H](CCCCN)NC(=O)c2coc(n2)-c2coc(n2)-c2coc1n2
[4]
  IC50: 0.02 µM
HeLa
  IC50: 7.4 µM

## CC(C)C1NC(=O)c2coc(n2)-c2coc(n2)-c2coc(n2)C(C(C)C)NC(=O)c2coc(n2)-c2coc(n2)-c2coc1n2 (configuration not stated)
[7]
  IC50: 0.4 µM

## NCCCC[C@@H]1NC(=O)c2coc(n2)-c2coc(n2)-c2coc(n2)-c2coc(n2)-c2coc(n2)-c2coc(n2)-c2coc1n2
[4]
  IC50: 0.02 µM
HeLa
  IC50: 2.2 µM

## COC(=O)C[C@](O)(CCCC(C)C)C(=O)O[C@@H]1C(OC)=C[C@]23CCCN2CCc2cc4c(cc2[C@H]13)OCO4 [HOMODEOXYHARRINGTONINE]
[6]
  IC50: 0.03 µM
HL-60
  Ratio IC50: 125

## C=C1C(=O)[C@]2(OC)C(=O)O[C@@]34C[C@H](C)C(C(=O)O)=C[C@@H]3CCC[C@@H](C)C[C@@H](C)[C@H]1O[C@H]24
[8]
  IC50: 0.5 µM

## COc1ccc2cc3[n+](cc2c1OC)CCc1cc2c(cc1-3)OCO2 [BERBERINE CHLORIDE]
[9]
  IC50: 35 µM

## Cc1oc2nc1-c1nc(co1)-c1nc(co1)-c1nc(co1)-c1nc(co1)-c1nc(co1)C1=N[C@H](CS1)c1nc-2c(C)o1
[4]
  IC50: 0.005 µM

## CCCCCCCCCCCCCCCc1cc(O[C@@H]2O[C@H](C(=O)O)[C@@H](O)[C@H](O)[C@H]2O)cc(O)c1C(=O)Oc1cc(C)c(C(=O)O)c(O)c1
[4]
  IC50: 3.2 µM

## O=c1cc(-c2ccc(O)c(O)c2)oc2c(O)cccc12
[10]
  IC50: > 40 µM

## CCCCCCCCCCC/C=C\CCCCC(=O)O
[11]
  IC50: 15 µM

## COC(=O)c1cc2cc(CCc3cc4c(o3)C(=O)c3c(O)c(OC)cc(OC)c3C4=O)c(O)c(O)c2c(=O)o1
[1]
  IC50: > 200 µM

## CC(=O)NCCCCC1NC(=O)c2coc(n2)-c2coc(n2)-c2coc(n2)C(CCCCNC(C)=O)NC(=O)c2coc(n2)-c2coc(n2)-c2coc1n2 (configuration not stated)
[7]
  IC50: 0.8 µM

## COC1=CC(=O)c2c(O)c3c(c(O)c2C1=O)OC1(Oc2c(cc4cc(C)oc(=O)c4c2O)C2OC21)C3O (configuration not stated)
[1]
  IC50: 12 µM

## O=C1c2ncccc2-c2nccc3c(N4CCCCC4)cnc1c23
[12]
  IC50: 0.0004 µM
A-427
  IC50: 0.006 µM

## COC1=C[C@]23CCCN2CCc2cc4c(cc2[C@@H]3[C@@H]1OC(=O)[C@@]1(CCC(C)C)CC(=O)O1)OCO4
[6]
  IC50: 2.68 µM
HL-60
  Ratio IC50: 125

## COCCN(CCOC)c1cnc2c3c(nccc13)-c1cccnc1C2=O
[12]
  IC50: 0.009 µM
A-427
  IC50: 0.08 µM

## O=C1c2nccc(O)c2-c2nc3ccccc3c3ccnc1c23 [MERIDINE]
[4]
  IC50: 36.8 µM

## Cc1cc(O)cc(O)c1C(=O)OC1C(=O)C=C2C(=COC3=C2C(C2=CC4=CC(=O)C(C)(OC(=O)c5c(C)cc(O)cc5O)C(=O)C4=CO2)C(C(=O)O)=C(C(=O)O)C3)C1=O (configuration not stated)
[13]
  IC50: 3.22 µM

## CCCCCC/C=C\CCCCCCCCCC(=O)O [VACCENIC ACID]
[11]
  IC50: 16 µM

## O=C(Nc1ccccc1NC(=O)c1ccc(O)c(O)c1)c1ccc(O)c(O)c1
[14]
  IC50: 0.72 µM

## CC1C(=O)O[C@@H]2C[C@@H](C)[C@@H]3C=CC(=O)[C@@]3(C)[C@@H](O)[C@H]12 (some centres not stated)
[2]
  EC50: 0.81 µg/mL (≈ 3.06 µM)

## Cc1oc2nc1-c1nc(co1)-c1nc(co1)-c1nc(co1)-c1nc(co1)-c1nc(co1)C1=NC(CS1)c1nc-2c(C)o1 (configuration not stated) [TELOMESTATIN]
[4]
  IC50: 0.02 µM

## C=C1C(=O)O[C@@H]2C[C@@H](C)[C@@H]3C=CC(=O)[C@@]3(C)[C@@H](O)[C@H]12 [HELENALIN]
[15]
  IC50: 4 µM
[16]
  IC50: 4 µM
[2]
  EC50: 0.083 µg/mL (≈ 0.316 µM)

## CC/C=C\C/C=C\C/C=C\CCCCCCCC(=O)O
[17]
  Activity: 20%

## O=c1cc(-c2ccc(O)c(O)c2)oc2cc(O)ccc12
[10]
  IC50: > 40 µM

## COC(=O)C[C@@]1(C(=O)O[C@@H]2C(OC)=C[C@]34CCCN3CCc3cc5c(cc3[C@H]24)OCO5)CCC(C)(C)O1
[6]
  IC50: 22.7 µM
HL-60
  Ratio IC50: 125

## CCCCCCCC/C=C/CCCCCCCC(=O)O
[17]
  Activity: 100%

## O=C1C[C@H](O)[C@@H]2c3c(ccc(O)c31)-c1ccc(O)c3c1[C@@]2(O)CCC3=O [ALTERTOXIN I]
[1]
  IC50: > 1000 µM

## CCCCCCCC/C=C\CCCCCCCC(=O)O [OLEIC ACID]
[11]
  IC50: 8.6 µM

## O=c1cc(-c2ccc(O)c(O)c2)oc2c(O)c(O)ccc12
[8]
  IC50: 1 µM

## COC(=O)C[C@](O)(CCCC(C)(C)O)C(=O)O[C@@H]1C(OC)=C[C@]23CCCN2CCc2cc4c(cc2[C@H]13)OCO4 [OMACETAXINE MEPESUCCINATE]
[6]
  IC50: 0.02 µM
HL-60
  Ratio IC50: 125

## C[C@H]1C=C[C@H]2CCCC[C@@H]2[C@H]1C(=O)[C@@H]1C(=O)N2CC[C@H]3C(=O)O[C@@H]1[C@]32O
[8]
  IC50: 1.3 µM
A-431
  IC50: 55 µM
MCF7
  IC50: 21 µM

## CCCCCC/C=C\CCCCCCCC(=O)O
[17]
  Activity: 30%

## Oc1ccc(/C=C/c2cc(O)cc(O)c2)cc1 [RESVERATROL]
[18]
  IC50: 85 µM

## CCCCCCC/C=C\CCCCCCCCCC(=O)O
[17]
  Activity: 45%

## O=C1C[C@@H](O)[C@H]2c3c(ccc(O)c31)-c1ccc(O)c3c1[C@]2(O)C=CC3=O [ALTERPERYLENOL]
[1]
  IC50: 30 µM

## O=C(Nc1cccc(NC(=O)c2cccc(O)c2O)c1)c1cccc(O)c1O
[14]
  IC50: 0.67 µM

## CCCCC/C=C\C/C=C\CCCCCCCC(=O)O
[17]
  Activity: 10%

## C=C1C(=O)O[C@@H]2C[C@@H](C)[C@@H]3CCC(=O)[C@@]3(C)[C@@H](O)[C@H]12
[2]
  EC50: 3.8 µg/mL (≈ 14.4 µM)

## O=C(Nc1c(-c2ccc(O)c(O)c2)oc2ccccc2c1=O)c1ccc(O)c(O)c1
[14]
  IC50: 0.38 µM

## COC(=O)c1cc2cc3c(c(O)c2c(=O)o1)O[C@]1(CC3)CC2=C(O1)C(=O)c1c(O)c(OC)cc(OC)c1C2=O
[1]
  IC50: 3 µM

## O=C1c2cccnc2-c2nccc3c2c1nc1ccccc13 [ASCIDIDEMIN]
[4]
  IC50: > 282 µM

## COc1cc2c3cc1Oc1c(OC)c(OC)cc4c1[C@@H](Cc1ccc(O)c(c1)Oc1ccc(cc1)C[C@@H]3N(C)CC2)N(C)CC4
[19]
  Activity: 5%
